Laboratory results from patent publication US10730919B2, “Peptides” (APITOPE INTERNATIONAL NV, priority 2013, dated 2020).

System: RNB12 specific T cells
Experiment: Identification of apitopes in the RNB12 region (fresh vs fixed APCs, proliferation and IFN gamma)
Assay type: cell-based, human
Conditions: RNB12 specific TCL, fresh or fixed BM14 cells (FIG. 18)
Description: Peripheral blood monocytes (PBMC) from healthy donors or Graves' disease patients were isolated (Histopaque-1077, Sigma-Aldrich), and frozen in aliquots. At day 0, cells were thawed and 106 PBMCs/ml cultured with 20 ug/ml peptide in supplemented (10 mM HEPES, 50 U/ml Penicillin/Streptomycin and 4 mM L-Glutamine (Lonza)) RPMI 1640 (Lonza) with 5% AB serum (Sigma Aldrich) added in a 6 well plate (Greiner Bio-one) and incubated in 37 C and 5% CO2. After 7 days rhIL-2 (R&D Systems) is added to a final concentration of 20 U/ml. […]
At day 24 the cells were harvested, washed and 2×104 cultured in a 96 well round-bottom plate (Cellstar, Greiner Bio One) with […] irradiated autologous PBMCs and VAVY/BM14/MGAR human cell lines expressing human MHC cl II molecules (International Histocompatibility Working group, Seattle, US) in supplemented RPMI+5% AB serum in presence of different antigens (peptides, protein) in concentration from 5-50 ug/ml. […] After the plates been frozen the cells were harvested and read with β counter (Wallac 1450 Microbeta Trilux) to assess proliferation. […]
The supernatants from TCL cultures were assessed for IFN gamma content by use of the Human IFN-gamma Duoset kit, R&D Systems following the manufacturer's instruction. Optical density was measured at 450 nm (Tecan Benelux)

Question: How did the apitope status turn out when KKKTLKLYNNGFTSVQGYKKK [RNB12-KKK] was run?
Answer: confirmed to be apitopes
